# Assay results as given in US9814238B2, “Herbicide composition” (ISHIHARA SANGYO KAISHA, LTD., priority 2013, dated 2017).
# What was measured:
# Type in all cases: in vivo
# [1] = test system: large crabgrass (Digitaria sanguinalis L.); test: Test Example 4: foliar treatment of large crabgrass in orchard field, visual growth inhibition rate; settings: foliar treatment at height 50 to 55 cm, 23rd day after treatment
# Source text: (§1) When the herbicidal activity in a case where two active ingredients are combined, is larger than the simple sum of the respective herbicidal activities of the two active ingredients (the expected activity), it is called a synergistic effect. The activity expected by the combination of two active ingredients can be calculated as follows (Colby S. R., “Weed”, vol. 15, p. 20-22, 1967). E=α+β−(α×β÷100) where α: growth inhibition rate when treated with x (g/ha) of herbicide X,
# (§2) β: growth inhibition rate when treated with y (g/ha) of herbicide Y,
# (§3) E: growth inhibition rate expected when treated with x (g/ha) of herbicide X and y (g/ha) of herbicide Y.
# (§4) That is, when the actual growth inhibition rate (measured value) is larger than the growth inhibition rate by the above calculation (calculated value), the activity by the combination can be regarded as showing a synergistic effect.
# (§5) An orchard field was compartmentalized into 0.5 square meter per test section. When large crabgrass (Digitaria sanguinalis L.) which naturally grew thereafter reached a height of from 50 to 55 cm, predetermined amounts of ME formulation containing tiafenacil as an active ingredient (the same as in Test Example 3) and WG formulation containing flazasulfuron as an active ingredient (the same as in Test Example 1) were diluted with water (in an amount corresponding to 300 L/ha) containing 0.5 vol % of an agricultural adjuvant (tradename: Destiny HC, manufactured by Winfield Solutions LLC.) and applied for foliar treatment by a small sprayer.
# On the 23rd day after treatment, the state of growth of the […] was visually observed to determine the growth inhibition rate in accordance with the same evaluation standard as in Test Example 1. The growth inhibition rate (%) (measured value) and the growth inhibition rate (%) (calculated value) calculated by the Colby's formula are shown in Table 4.
# [2] = test system: common dayflower (Commelina communis L.); test: Test Example 3: foliar treatment of common dayflower in orchard field, visual growth inhibition rate; settings: foliar treatment at height 35 to 40 cm, 23rd day after treatment
# Source text: as §1, §2, §3, §4
# as §5, with “common dayflower (Commelina communis” for “large crabgrass (Digitaria sanguinalis”, “35” for “50”, “40” for “55”, “a microemulsion (ME formulation)” for “ME formulation”, “prepared by a conventional method” for “as an active ingredient (the same as in Test Example 3)”
# On the 23rd day after treatment, the state of growth of the common dayflower was visually observed to determine the growth inhibition rate in accordance with the same evaluation standard as in Test Example 1. The growth inhibition rate (%) (measured value) and the growth inhibition rate (%) (calculated value) calculated by the Colby's formula are shown in Table 3.
# [3] = test system: large crabgrass (Digitaria sanguinalis L.); test: Test Example 2: soil treatment of large crabgrass in pot, visual growth inhibition rate; settings: soil treatment day after sowing, 14th day after treatment
# Source text: as §1, §2, §3, §4
# Upland field soil was put into a 1/500,000 ha pot, and seeds of large crabgrass (Digitaria sanguinalis L.) were sown. […]
# On the 14th day after treatment, the state of growth of the large crabgrass was visually observed to determine the growth inhibition rate in accordance with the same evaluation standard as in Test Example 1. The growth inhibition rate (%) (measured value) and the growth inhibition rate (%) (calculated value) calculated by the Colby's formula are shown in Table 2.
# [4] = test system: large crabgrass (Digitaria sanquinalis L.); test: Test Example 1: foliar treatment of large crabgrass in vat, visual growth inhibition rate; settings: foliar treatment at 7-leaf stage, 24th day after treatment
# Source text: as §1, §2, §3, §4
# Upland field soil was put into a 1/1,000,000 ha vat, and seeds of large crabgrass (Digitaria sanquinalis L.) were sown. When the large crabgrass reached 7-leaf stage, predetermined amounts of an emulsifiable concentrate (EC formulation) containing tiafenacil prepared by a conventional method, water dispersible granules containing flazasulfuron as an active ingredient (WG formulation, tradename: SHIBAGEN DF manufactured by Ishihara Sangyo Kaisha, Ltd.), were diluted with water in an amount corresponding to 300 L/ha, and applied for foliar treatment by a small sprayer.
# On the 24th day after treatment, the state of growth of the large crabgrass was visually observed to determine the growth inhibition rate in accordance with the following evaluation standard. The growth inhibition rate (%) (measured value) and the growth inhibition rate (%) (calculated value) calculated by the Colby's formula are shown in Table 1. Growth inhibition rate (%)=0 (equivalent to the non-treated area) to 100 (complete kill)
# [5] = test system: common horsetail (Equisetum arvense); test: Test Example 5: foliar treatment of common horsetail in orchard field, visual growth inhibition rate; settings: foliar treatment at height 15 to 20 cm, 23rd day after treatment
# Source text: as §1, §2, §3, §4
# as §5, with “section,” for “section.”, “common horsetail (Equisetum arvense)” for “large crabgrass (Digitaria sanguinalis L.)”, “15” for “50”, “20” for “55”
# On the 23rd day after treatment, the state of growth of the common horsetail was visually observed to determine the growth inhibition rate in accordance with the same evaluation standard as in Test Example 1. The growth inhibition rate (%) (measured value) and the growth inhibition rate (%) (calculated value) calculated by the Colby's formula are shown in Table 5.
Structure (SMILES),"Growth inhibition rate (%) of large crabgrass, Measured value ([1]; dose 25 g/ha) [%]","Growth inhibition rate (%) of large crabgrass, Measured value ([1]; dose 50 g/ha) [%]","Growth inhibition rate (%) of large crabgrass, Measured value ([1]; dose 100 g/ha) [%]","Growth inhibition rate (%) of common dayflower, Measured value ([2]; dose 25 g/ha) [%]","Growth inhibition rate (%) of common dayflower, Measured value ([2]; dose 50 g/ha) [%]","Growth inhibition rate (%) of large crabgrass, Measured value ([3]; dose 50 g/ha) [%]","Growth inhibition rate (%) of large crabgrass, Measured value ([4]; dose 12.5 g/ha) [%]","Growth inhibition rate (%) of large crabgrass, Measured value ([4]; dose 25 g/ha) [%]","Growth inhibition rate (%) of common horsetail, Measured value ([5]; dose 25 g/ha) [%]","Growth inhibition rate (%) of common horsetail, Measured value ([5]; dose 50 g/ha) [%]","Growth inhibition rate (%) of common horsetail, Measured value ([5]; dose 100 g/ha) [%]","Growth inhibition rate (%) of common horsetail, Measured value ([5]; dose 150 g/ha) [%]","inhibition at 40 g/ha ([1]; Digitaria sanguinalis, dose 40 g/ha, read-out: Growth inhibition rate (%) of large crabgrass, Measured value) [%]","inhibition at 20 g/ha ([2]; Commelina communis, dose 20 g/ha, read-out: Growth inhibition rate (%) of common dayflower, Measured value) [%]","inhibition at 40 g/ha ([2]; Commelina communis, dose 40 g/ha, read-out: Growth inhibition rate (%) of common dayflower, Measured value) [%]","inhibition at 20 g/ha ([3]; Digitaria sanguinalis, dose 20 g/ha, read-out: Growth inhibition rate (%) of large crabgrass, Measured value) [%]","inhibition at 20 g/ha ([4]; Digitaria, dose 20 g/ha, read-out: Growth inhibition rate (%) of large crabgrass, Measured value) [%]","inhibition at 20 g/ha ([5]; Equisetum arvense, dose 20 g/ha, read-out: Growth inhibition rate (%) of common horsetail, Measured value) [%]","inhibition at 40 g/ha ([5]; Equisetum arvense, dose 40 g/ha, read-out: Growth inhibition rate (%) of common horsetail, Measured value) [%]"
"COC(=O)CCNC(=O)C(C)Sc1cc(-n2c(=O)cc(C(F)(F)F)n(C)c2=O)c(F)cc1Cl (racemic) [Tiafenacil, methyl 3-((2RS)-2-{2-chloro-4-fluoro-5-[1,2,3,6-tetrahydro-3-methyl-2,6-dioxo-4-(trifluoromethyl)pyrimidin-1(6H)-yl]phenylthio}propionamido]propionate]",5,5,8,50,60,65,20,30,63,63,68,55,–,–,–,–,–,–,–
"COc1cc(OC)nc(NC(=O)NS(=O)(=O)c2ncccc2C(F)(F)F)n1 [Flazasulfuron, 1-(4,6-dimethoxypyrimidin-2-yl)-3-(3-trifluoromethyl-2-pyridylsulfonyl)urea]",–,–,–,–,–,–,–,–,–,–,–,–,33,45,40,60,40,55,53
